The test system of this test is tetrabenazine-induced sedation and depression in mice. The experiment in a line: Antagonism of tetrabenazine-induced depression in mice, orally, at 1 hour post-drug. The following applies: Mus musculus. It counts as in vivo, female white mice (Carworth CF1 S). How it is done: This mouse test is predictive of human antidepressant response (Everett, "The Dopa Response Potentiation Test and Its Use in Screening for Antidepressant Drugs," pp. 164 in "Antidepressant Drugs" (Proceedings of the First International Symposium), S. Garattini and M. N. G. Dukes, eds., 1967).
Groups of 10 Carworth CF1 S female mice, 18-21 g each, were fasted 1.5 hours and were intubated with antagonist compounds at oral doses of 0, 0.33, 1, 3, 9, 27, and 81 mg/kg in 0.20 ml of 1% Methocel-1.25% Tween 80. The mice were challenged 30 minutes later with tetrabenazine (as the methanesulfonate), 32 mg/kg intraperitoneally (dissolved in 0.20 ml 0.05 M KCl at pH 2.0). One hour after antagonist (30 minutes after tetrabenazine), the mice were examined for signs of exploratory activity and ptosis (eyelid closure). Normal exploratory activity (relief from sedation) was recorded when a mouse lifted by the tail from a group of 10 in a testing box and placed on a stainless testing box lid (12.5"×8"with 0.33" mesh) either turned its head horizontally 30° in both directions or moved to the edge of the screen within 10 seconds after being placed on the screen. Relief from ptosis was recorded when exactly two seconds after placing the mouse facing the observer, lid closure was less than 50% in both eyes.

Where [1] appears, read: po, 1 h, read-out: ED50 for prevention of exploratory loss.
The mark [2] stands for this setting: po, 1 h, read-out: ED50 for prevention of ptosis.

Like-named read-outs stand apart in the source and are kept apart here.

For the compound `CN1CCC(O)(c2cccn2C)CC1` [Example 1, 1-Methyl-4-(1-methylpyrrol-2-yl)-4-piperidinol], the ED50 under setting [1] worked out at 1.8 mg/kg and the ED50 under setting [2] was found to be 1.1 mg/kg.

For `CN1CC=C(c2cccn2C)CC1.Cl` [Example 2, 1,2,3,6-Tetrahydro-1-methyl-4-(1-methylpyrrol-2-yl)pyridine, hydrochloride salt], the ED50 runs as follows: under setting [1], 1.4 mg/kg; under setting [2], 0.8 mg/kg.

`CN(C)CCC=C1c2ccccc2CCc2ccccc21` [Amitriptyline, reference compound]: the 50% effective dose (ED50) is 3.5 mg/kg (oral, 1 hour post-drug (30 min after tetrabenazine 32 mg/kg i.p.), exploratory activity, read-out: ED50 for prevention of exploratory loss) and 1.4 mg/kg (oral, 1 hour post-drug (30 min after tetrabenazine 32 mg/kg i.p.), lid closure less than 50% in both eyes, read-out: ED50 for prevention of ptosis).
